Measured values taken from patent US20250263370A1 (Tay Therapeutics Limited, priority 2022, published 2025).
pEC50: −log10 of the molar value. “And” between values parts separate entries of the source, which are not always exact repeats. Identical values can stand only once. “Also recorded” adds a separate entry of the source.

Experiments:
[1] = Plasma stability assay, human plasma; format: in vitro ADME; details: Method 1 (5 μM)
Description: From stock solution of compound in 10 mM DMSO, a working solution of 1 mM is prepared by diluting the compound in DMSO. To 398 μL of plasma pre-warmed at 37° C. for 15 minutes), 2 μL of working solution of compound is added, resulting in a final concentration of 5 μM (0.5% DMSO) for the compound. The sample is then incubated at 37° C. Aliquot is withdrawn at specified time-points (0, 15, 30, 60 and 120 mins). The reaction is stopped by addition of 450 μL cold acetonitrile containing internal standard (IS). […] Aliquots of the supernatant is analysed using LC-MS/MS. The percent remaining of the compound at each time point is calculated with respect to the control sample (0 min time-point).
A working solution of compound (500 μM) is prepared in DMSO (100%). To 735 μL of plasma, 15 μL of working solution of compound is added—resulting in a final concentration of 10 μM (2% DMSO) for the compound. The sample is then incubated at 37° C. Aliquot is withdrawn at time-points—0, 15, 30, 60, 90 and 120 mins. The reaction is stopped by using chilled acetonitrile containing internal standard (IS). The samples are centrifuged and the supernatants analyzed using LC-MS/MS. The percent remaining of the compound at each time point is calculated with respect to the control sample (0 min time-point).

renal fibrosis = experiment: Unilateral Urethral Obstruction (UUO) renal fibrosis model in rats: body weight, clinical observations, histopathology scores, serum urea, hydroxyproline; format: in vivo, rat; design: Glomerulosclerosis score / Interstitial nephritis score / Collagen fiber deposition score / Nephropathy score / Total score: scale not given here; details: for Clinical Observation: — = no observation
Description: Unilateral Urethral Obstruction (UUO) is a complex model of renal fibrosis (RF) disease. RF is a common outcome in progressive chronic kidney diseases, characterized by excessive formation of internal scar tissue. Surgical obstruction of urine flow can be used to trigger this disease in rodents. The UUO model allows for evaluation of potential drugs as treatment for RF.
Experimental groups for the study are outlined in Table 10. […] Briefly, animals were anesthetized using a Zoletil/Xylazine mixture (20:1, v:v) for a final dose of 25 mg/kg. The operation area was disinfected with 75% alcohol before shaving. Rats in UUO group were exposed left ureter through a small incision on the left side of the abdomen and ligated with 3-0 silk at two locations about 0.5 cm below the renal hilum. The ureters of sham rats in Group 1 were manipulated but not ligated.
Starting on Day 0, animals in group 2 were administered daily doses of the vehicle for 14 days.
Clinical signs for all animals were monitored and recorded daily. Blind clinical nephropathy scores were conducted for all animals in the study. Glomerulosclerosis, interstitial nephritis, collagen fiber deposition, nephropathy were each assessed for all experimental rats, and a total clinical score was determined for each rat. The scoring system represented the degree or percentage of lesions in the whole kidney. Clinical score assessments were performed on Day 14.
Serum for blood biochemistry analysis was collected into centrifuge tubes without coagulant four hours after final dosing. Blood plasma samples from group 3 was collected into tubes with K2EDTA four hours after final dosing. At the conclusion of the study (end of the 14-day period), animals were euthanized. Kidney tissue was collected four hours after final dosing. Ligated side kidney was divided into three copies ⅓ fix into 10% formalin for H&E analysis, ⅓ into RNA for PCR analysis of tissue biomarkers Col1a1, TGF-b1, MCP-1, IL-1b, IL-6, IL-17, TNF-a, and Timp1, and ⅓ for hydroxyproline assay analyzed by ELISA. RNA was extracted from tissue using the RNeasy mini kit (Qiagen). RNA concentration was measured using a NanoDrop One Spectrophotometer (ThermoFisher) and converted to cDNA using a High-Capacity RNA-to-cDNA kit (Invitrogen). RT-PCR was performed to measure levels of mRNA of different targets using TaqMan® Gene Expression Master Mix and TaqMan® probe/primer sets on a QuantStudio 6, Real-Time PCR System (ThermoFisher). Fold change in target gene expression was determined using the ΔΔCt method.

BD 2 = BD 2 (Homo sapiens, UniProt O60885); experiment: Free EC50 for BD 2, compared with plasma concentration
[2] = 30 mg/kg BID for 14 days (group 3)
[3] = Example 101 30 mg/kg, individual animals, histopathology score

CNC(=O)c1[nH]c(C(=O)NC2CCC2)cc1O[C@@H](C)c1ccccc1 (stereo in doubt) [Example 101, N^5-cyclobutyl-N^2-methyl-3-(1-phenylethoxy)-1H-pyrrole-2,5-dicarboxamide]
Plasma Stability (% remaining at 120 minutes), Human [1]: 93%
overall effect in UUO / renal fibrosis (renal fibrosis; 30 mg/kg): ameliorates clinical symptoms associated with UUO; also recorded: surprisingly effective against renal fibrosis and renal fibrosis-related conditions
animals that exhibited diarrhea in addition to soft stools (renal fibrosis; [2]): One animal
animals that exhibited dirty anuses (renal fibrosis; [2]): Three animals
body weight over the 14-day study (renal fibrosis; [2]): slight weight loss over the first seven days of the study, and then gained weight over the remaining seven days
rats that exhibited soft stools during the study (renal fibrosis; [2]): Four
level of collagen fiber deposition relative to UUO + vehicle (renal fibrosis; 30 mg/kg BID, Day 14): reduced
level of interstitial nephritis relative to UUO + vehicle (renal fibrosis; 30 mg/kg BID, Day 14): reduced
level of nephropathy relative to UUO + vehicle (renal fibrosis; 30 mg/kg BID, Day 14): reduced
pathology staining of kidney (FIG. 13B) (renal fibrosis; 30 mg/kg BID, Day 14): mild interstitial nephritis with neutrophil and lymphocyte infiltration, degeneration and necrosis of renal tubular epithelial cells, and high tubular dilatation
total clinical scores relative to UUO + vehicle (renal fibrosis; 30 mg/kg BID, Day 14): reduced
serum urea levels between the three experimental groups (renal fibrosis; 30 mg/kg BID, four hours after final dosing): No significant differences
hydroxyproline levels between the three experimental groups (renal fibrosis; 30 mg/kg BID, kidney tissue): No significant differences
Body weight (renal fibrosis; 30 mg/kg, Day 0, individual animals): 324 g and 307 g and 295 g and 302 g and 285 g and 297 g and 294 g and 306 g
Body weight (renal fibrosis; 30 mg/kg, Day 1, individual animals): 293 g and 284 g (2×) and 277 g (2×) and 279 g and 276 g and 302 g
Body weight (renal fibrosis; 30 mg/kg, Day 2, individual animals): 299 g (2×) and 274 g (3×) and 275 g and 273 g and 303 g
Body weight (renal fibrosis; 30 mg/kg, Day 3, individual animals): 306 g and 266 g and 267 g and 274 g (2×) and 278 g and 304 g and 305 g
Body weight (renal fibrosis; 30 mg/kg, Day 4, individual animals): 315 g and 259 g and 262 g and 276 g and 283 g and 277 g and 309 g and 312 g
Body weight (renal fibrosis; 30 mg/kg, Day 5, individual animals): 310 g and 263 g and 254 g and 282 g and 284 g and 279 g and 302 g and 315 g
Body weight (renal fibrosis; 30 mg/kg, Day 6, individual animals): 323 g and 265 g and 258 g and 286 g and 285 g and 284 g and 304 g and 321 g
Body weight (renal fibrosis; 30 mg/kg, Day 7, individual animals): 322 g and 270 g and 258 g and 297 g and 289 g and 287 g and 307 g and 324 g
Body weight (renal fibrosis; 30 mg/kg, Day 8, individual animals): 322 g and 271 g and 260 g and 296 g
Body weight (renal fibrosis; 30 mg/kg, Day 9, individual animals): 331 g and 276 g and 264 g and 303 g
Body weight (renal fibrosis; 30 mg/kg, Day 10, individual animals): 330 g and 277 g and 261 g and 311 g
Body weight (renal fibrosis; 30 mg/kg, Day 11, individual animals): 327 g and 275 g and 265 g and 297 g
Body weight (renal fibrosis; 30 mg/kg, Day 12, individual animals): 318 g and 285 g and 260 g and 291 g
Body weight (renal fibrosis; 30 mg/kg, Day 13, individual animals): 328 g and 283 g and 276 g and 304 g
Body weight (renal fibrosis; 30 mg/kg, Day 14, individual animals): 334 g and 286 g and 271 g and 313 g
Body weight (renal fibrosis; 30 mg/kg, Day −1, individual animals): 306 g and 287 g and 299 g and 295 g and 281 g and 285 g and 296 g and 301 g
Serum Urea Mean ± SD (renal fibrosis; 30 mg/kg, group mean): 5.85 ± 0.69 mmol/L
Serum Urea (renal fibrosis; 30 mg/kg, individual animals): 4.95 mmol/L and 6.04 mmol/L and 6.62 mmol/L and 5.01 mmol/L and 5.28 mmol/L and 6.26 mmol/L and 5.90 mmol/L and 6.70 mmol/L
Collagen fiber deposition score (renal fibrosis; [3]): 2 (2×) and 1 (6×)
Glomerulosclerosis score (renal fibrosis; [3]): 0
Interstitial nephritis score (renal fibrosis; [3]): 3 (5×) and 2 (3×)
Nephropathy score (renal fibrosis; [3]): 2 (2×) and 1 (6×)
Total score (renal fibrosis; Example 101 30 mg/kg, individual animals, sum of histopathology scores): 7 (2×) and 5 (3×) and 4 (3×)
Body weight, Mean ± SD (renal fibrosis; group 3, Day 0, group mean): 301 g
Body weight, Mean ± SD (renal fibrosis; group 3, Day 1, group mean): 284 g
Body weight, Mean ± SD (renal fibrosis; group 3, Day 2, group mean): 284 g
Body weight, Mean ± SD (renal fibrosis; group 3, Day 3, group mean): 284 g
Clinical Observation (renal fibrosis; group 3, Day 3, individual animals): diarrhea
Body weight, Mean ± SD (renal fibrosis; group 3, Day 4, group mean): 287 g
Body weight, Mean ± SD (renal fibrosis; group 3, Day 5, group mean): 286 g
Clinical Observation (renal fibrosis; group 3, Day 5, individual animals): Anal
Body weight, Mean ± SD (renal fibrosis; group 3, Day 6, group mean): 291 g
Clinical Observation (renal fibrosis; group 3, Day 6, individual animals): Anal
Body weight, Mean ± SD (renal fibrosis; group 3, Day 7, group mean): 294 g
Clinical Observation (renal fibrosis; group 3, Day 7, individual animals): Anal
Body weight, Mean ± SD (renal fibrosis; group 3, Day 8, group mean): 296 g
Clinical Observation (renal fibrosis; group 3, Day 8, individual animals): soft
Body weight, Mean ± SD (renal fibrosis; group 3, Day 9, group mean): 300 g
Clinical Observation (renal fibrosis; group 3, Day 9, individual animals): soft
Body weight, Mean ± SD (renal fibrosis; group 3, Day 10, group mean): 303 g
Clinical Observation (renal fibrosis; group 3, Day 10, individual animals): soft
Body weight, Mean ± SD (renal fibrosis; group 3, Day 11, group mean): 306 g
Body weight, Mean ± SD (renal fibrosis; group 3, Day 12, group mean): 304 g
Body weight, Mean ± SD (renal fibrosis; group 3, Day 13, group mean): 312 g
Clinical Observation (renal fibrosis; group 3, Day 13, individual animals): soft
Body weight, Mean ± SD (renal fibrosis; group 3, Day 14, group mean): 314 g
Clinical Observation (renal fibrosis; group 3, Day 14, individual animals): Anal (2×) and soft
Body weight, Mean ± SD (renal fibrosis; group 3, Day −1, group mean): 294 g
Final Hydroxyproline Con., Mean (renal fibrosis; group mean): 0.65 μg/mg tissue
Final Hydroxyproline Con. (renal fibrosis; individual animals): 0.72 μg/mg tissue (2×) and 0.69 μg/mg tissue and 0.64 μg/mg tissue and 0.60 μg/mg tissue and 0.66 μg/mg tissue and 0.58 μg/mg tissue and 0.55 μg/mg tissue
pEC50 (BD 2): 6.22
